Assay results taken from patent US20230165872A1, “COMBINATION OF BCMA-DIRECTED T CELL THERAPY AND AN IMMUNOMODULATORY COMPOUND” (Juno Therapeutics, Inc., priority 2020, published 2023).

What was measured:
[1] = test system: RPMI-8226 target cells; test: Rechallenge with RPMI-8226 after concurrent compound treatment during chronic stimulation (cytolysis, cytokines); type: cell-based, human
Protocol: Cryofrozen anti-BCMA CAR T cells, produced substantially as described in Example 1 and formulated at a 1:1 ratio of CD4+ and CD8^+ T cells, were thawed. To subject cells to chronic stimulation conditions, the anti-BCMA CAR+ T cells were stimulated with 50 μg BCMA conjugated beads (diameter about 4.5 μm from a 50 μg/ml BCMA-conjugated bead composition, generated as described in Example 2) at a ratio of T cells to beads of 1:1 in the presence or absence of Compound A (iberdomide, (S)-3-[4-(4-morpholin-4-ylmethyl-benzyloxy)-1-oxo-1,3-dihydro-isoindol-2-yl]-piperidine-2,6-dione) (1 nM or 10 nM), Compound B ((S)-4-(4-(4-(((2-(2,6-dioxopiperidin-3-yl)-1-oxoisoindolin-4-yl)oxy)methyl)benzyl)piperazin-1-yl)-3-fluorobenzonitrile) (0.1 nM or 1 nM), or DMSO vehicle control. The cells were then incubated at 37° C., 5% CO2 for 7 days.
CAR T cells that had been stimulated for 7 days with cultured with 50 μg BCMA-coated magnetic beads concurrently in the presence of the cell immunomodulatory compound were washed free of compound and cells were debeaded. The anti-BCMA CAR T cells that had been stimulated for 7 days with BCMA-conjugated beads in the presence of the compounds were co-cultured with RPMI-8226 target cells (labeled with NucLightRed as described in Example 2) at a 1:1 (effector:target) ratio. Killing activity was monitored over 200 hours by measuring NucLightRed (NLR)-positive target cells. The total cell number of NLR-expressing RPMI targets cells was determined by normalizing cell number over time to the number of cells at the initiation of the co-culture (t=0) for each respective condition.
For cytokine measurements, cell-free supernatants were collected from the cytolytic assay described above 24 hours after plating. Cytokine levels of IFNg, IL-2, and TNFalpha (TNFα) was measured in the supernatant.
Cryofrozen anti-BCMA CAR T cells, produced substantially as described in Example 1 and formulated at a 1:1 ratio of CD4+ and CD8+ T cells, were thawed. […] The cells were then incubated at 37° C., 5% CO2 for 7 days.
Cytolytic activity was assessed using OPM-2 and RPMI-8226 BCMA expressing target cells transduced with NucLight Red, a red fluorescent protein detectable by microscopy, to allow for measurement of target cell death. Anti-BCMA CAR T cells that had been stimulated for 7 days with BCMA-conjugated beads in the presence of the compounds were co-cultured with RPMI-8226 target cells at a 0.3:1 (effector:target) or 1:1 ratio. Cultures were incubated at 37° C., 5% CO2, and images were taken every 2 hours over 5-7 days with an Essen IncuCyte Zoom live-cell analysis system to track NucLightRed-positive target cells.
For cytokine measurements, cell-free supernatants were collected from the cytolytic assay described above 24 hours after plating. Cytokine levels were measured using IFNg, IL-2, and TNFalpha Meso Scale Discovery cytokine kit (Mesoscale) according to manufacturer instructions. The data was analyzed using GraphPad Prism to calculate absolute changes in cytokine relative to the DMSO vehicle control.

[2] = target: CRBN (Homo sapiens, UniProt Q96SW2); conditions: compared with lenalidomide and pomalidomide; cited from earlier work
[3] = test system: Aiolos and Ikaros; conditions: compared with lenalidomide and pomalidomide; cited from earlier work
[4] = test system: DF-15(R) (multiple myeloma) cells; test: Murine orthotopic DF-15(R) tumor model (resistant), anti-BCMA CAR T cells plus Compound A; type: in vivo, mouse; conditions: combination
Protocol: Anti-tumor effects of anti-BCMA CAR T cells, alone and in combination with concurrent or delayed administration of Compound A (iberdomide, (S)-3-[4-(4-morpholin ylmethyl-benzyloxy)-1-oxo-1,3-dihydro-isoindol-2-yl]-piperidine-2,6-dione), were assessed in disseminated tumor models. The combinatorial effects were assessed in both tumor models sensitive to and resistant to the immunomodulatory compound. The anti-BCMA CAR T cells used in the study were produced as described in Example 1.
The effects of anti-BCMA CAR-T cells in combination with Compound A was assessed in a murine orthotopic tumor model using DF-15(R) cells, which is a tumor model that is resistant to the immunomodulatory compound. Mice (NOD.Cg-Prkdc^scidIL-2rg^tm1Wj1/SzJ mice (NSG; Jackson Labs)) were injected intravenously (i.v.) with 2×10^6 DF-15(R) (multiple myeloma) cells transfected with firefly luciferase ([…]). Tumor engraftment was allowed to occur for 13 days prior to staging (14 days before CAR-T cell administration) and verified using bioluminescence imaging.
In one study, mice were administered Compound A (1 mg/kg or 3 mg/kg) via oral administration once a day starting from the day before administration of 0.5×10^6 anti-BCMA CAR T cells, and administration of Compound A was continued once a day until 32 days post-CAR T cell administration (concurrent dosing). […]
For bioluminescence imaging (BLI), mice received intraperitoneal (i.p.) injections of luciferin substrate (CaliperLife Sciences, Hopkinton, Mass.) resuspended in PBS (15 μg/g body weight). The average radiance (p/s/cm^2/sr) was determined. Survival of mice treated as described above were assessed and compared over time post-infusion of CAR-expressing T cells. […]
The numbers of CD3+ CAR T cells were determined in the blood at day 6 and day 14 by flow cytometry using antibodies directed against CD3 and the surrogate marker on the CAR-expressing cells.

Sequence of CRBN (Q96SW2 whole entry, species assumed): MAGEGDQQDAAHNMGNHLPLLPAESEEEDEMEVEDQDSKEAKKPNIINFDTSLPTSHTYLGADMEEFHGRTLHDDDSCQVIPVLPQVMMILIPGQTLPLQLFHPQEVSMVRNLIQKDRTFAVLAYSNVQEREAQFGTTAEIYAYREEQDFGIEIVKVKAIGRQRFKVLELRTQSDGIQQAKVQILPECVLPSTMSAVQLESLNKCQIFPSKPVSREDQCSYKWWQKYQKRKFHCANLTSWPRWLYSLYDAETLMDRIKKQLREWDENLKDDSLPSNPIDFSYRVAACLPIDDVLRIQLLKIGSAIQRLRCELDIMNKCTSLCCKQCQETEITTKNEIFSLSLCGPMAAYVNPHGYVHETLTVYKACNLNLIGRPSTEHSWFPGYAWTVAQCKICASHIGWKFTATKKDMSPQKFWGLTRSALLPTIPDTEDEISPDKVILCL

O=C1CC[C@H](N2Cc3c(OCc4ccc(CN5CCOCC5)cc4)cccc3C2=O)C(=O)N1 [Compound A, (S)-3-[4-(4-morpholin-4-ylmethyl-benzyloxy)-1-oxo-1,3-dihydro-isoindol-2-yl]-piperidine-2,6-dione]
cytolytic activity after long-term stimulation in the presence of compound ([1]; Example 7: E:T 0.3:1, lenalidomide 1000 nM, Compound A 1 or 10 nM, FIG. 9A): increased cytolytic activity
production of IFN-gamma ([1]; Example 7: supernatant at 24 hours, relative to DMSO, FIG. 9B): increased production
production of IL-2 ([1]; Example 7: supernatant at 24 hours, relative to DMSO, FIG. 9C): increased production
production of TNF-alpha ([1]; Example 7: supernatant at 24 hours, relative to DMSO, FIG. 9D): increased production
binding to CRBN [2]: binds more potently
efficiency of degrading Aiolos and Ikaros [3]: more efficient at degrading Aiolos and Ikaros than lenalidomide and pomalidomide
tumor burden (BLI) versus anti-BCMA CAR T cells alone ([4]; concurrent dosing, 1 or 3 mg/kg oral, FIG. 7A): reduce tumor burden
survival versus anti-BCMA CAR T cells alone ([4]; concurrent dosing, FIG. 7B): improve survival
numbers of CD3+ CAR+ T cells in the blood ([4]; concurrent regimen, low and high dose, day 6 and day 14, FIG. 7C): statistically significant increase
